Data as given in patent publication US20250221413A1, “Use and Preparation Method of Sulfoxamyl, and Oxidation System” (priority 2023, published 2025).
≈ marks a conversion by molar mass, not a printed value. Where “and” joins values, the source holds several entries; their conditions need not be identical. Identical values can stand only once. Entries after “also recorded” stand apart in the source; their conditions may differ. Like-named read-outs stand apart in the source and are kept apart here.

Legend:
Meloidogyne incognita = assay: Indoor toxicity test against Meloidogyne incognita second-instar larvae (J2); settings: for LC50 / mortality at 3.1 µg/mL / mortality at 6.25 µg/mL / mortality at 12.5 µg/mL / mortality at 25 µg/mL / mortality at 50 µg/mL / mortality at 100 µg/mL: Meloidogyne incognita
Experimental: Materials: the tested nematodes were collected from three different areas, namely cucumber crops in Dawenkou Town, Tai'an City, Shandong Province, and were all identified as southern root-knot nematodes (Meloidogyne incognita). The diseased roots were washed, cut into small sections of 0.5 cm to 1 cm, rinsed in 1% NaClO solution for about 30 s to 60 s, and rinsed with 200-mesh and 500-mesh sieves to collect nematode eggs for later use. The collected eggs were incubated at 25° C. using the Bayman funnel method and the second-instar larvae were collected 1 time per 24 h to ensure that the second-instar larvae selected each time were fresh and of consistent vitality.
The agent was 98% sulfoxamyl technical, and the comparison agents were 96% oxamyl technical and 87% fosthiazate technical.
The preparation for the agent was in accordance with the provisions for preparation of the liquid medicine in the Agricultural Industry Standard of the People's Republic of China NYT 1833.1-2009 “Guideline for laboratory bioassay of pesticides”, as shown in Table 6.
Methods: according to the experimental plan, the test agent was diluted to different mass concentrations, and 0.5 mL of the agent solution and 0.5 mL of the nematode solution (containing about 100 nematodes) were added into a 24-well cell culture plate. The treatment with each concentration of the agent was repeated 4 times, and auxiliary agent control and blank control were also conducted. […]

SD rats = assay: Acute oral toxicity test, single oral fixed-dose procedure; assay type: in vivo
Experimental: Materials: the test agent 98% sulfoxamyl technical, batch number 20230708-1, was provided by Ningxia Hugerise Chemical Co., Ltd. Experimental animals: SPF-grade SD rats, half male and half female, weighing 180 g to 220 g, were provided by Jinan Pengyue Experimental Animal Breeding Co., Ltd., license number SCXK (Lu) 20190003. Rearing environment: the rats were housed in an SPF-grade animal room with free access to water and food, a temperature of 20° C. to 25° C., a humidity of 40% to 60%, and a 12 h/12 h light cycle. Feed: conventional pellet feed was provided by Jinan Pengyue Experimental Animal Breeding Co., Ltd.
The test was conducted in accordance with “Toxicological test methods of pesticides for registration, GB15670.5-2017”, “Acute toxicity test, GB15193.3-2003” and relevant acute toxicity research data.
Methods: a single oral fixed-dose procedure was conducted to preliminarily explore the toxic dose range of sulfoxamyl. LD50 and confidence limits were calculated by using the probability unit method (Bliss method). SD rats were randomly divided into 5 groups, 10 rats in each group, half of them were male and half were female. […] The common ratio value among each dose group was 0.75. After a single oral administration, the mortality rate of the experimental animals was recorded within 24 h and 14 days after administration, while the general condition of the animals was observed, and the food intake and body weight changes were recorded.

Structure (SMILES): CNC(=O)O/N=C(/C(=O)N(C)C)S(C)(=O)=O [Sulfoxamyl, N,N-dimethyl-2-[[[(methylamino)carbonyl]oxy]imino]-2-(methylsulfonyl)acetamide]
- Corrected mortality (Meloidogyne incognita; 3.1 mg/L, 24 h): 16.24% and 26.66% and 16.93%
- Mortality (Meloidogyne incognita; 3.1 mg/L, 24 h): 17.27% and 27.56% and 17.95%
- Corrected mortality (Meloidogyne incognita; 3.1 mg/L, 48 h): 26.21% and 30.50% and 18.49%
- Death count (Meloidogyne incognita; 3.1 mg/L, 48 h): 21 and 30 and 40 and 23
- Mortality (Meloidogyne incognita; 3.1 mg/L, 48 h): 27.27% and 31.50% and 19.66%
- Corrected mortality (Meloidogyne incognita; 3.1 mg/L, 72 h): 36.09% and 39.84% and 31.21%
- Death count (Meloidogyne incognita; 3.1 mg/L, 72 h): 39 and 41 and 52 and 38
- Mortality (Meloidogyne incognita; 3.1 mg/L, 72 h): 37.27% and 40.94% and 32.48%
- Corrected mortality (Meloidogyne incognita; 6.25 mg/L, 24 h): 22.19% and 15.49% and 28.36%
- Death count (Meloidogyne incognita; 6.25 mg/L, 24 h): 19 and 25 and 20 and 31
- Mortality (Meloidogyne incognita; 6.25 mg/L, 24 h): 23.15% and 16.53% and 29.25%
- Corrected mortality (Meloidogyne incognita; 6.25 mg/L, 48 h): 30.48% and 22.86% and 33.96%
- Death count (Meloidogyne incognita; 6.25 mg/L, 48 h): 36 and 34 and 29 and 37
- Mortality (Meloidogyne incognita; 6.25 mg/L, 48 h): 31.48% and 23.97% and 34.91%
- Corrected mortality (Meloidogyne incognita; 6.25 mg/L, 72 h): 32.08% and 27.59% and 38.49%
- Death count (Meloidogyne incognita; 6.25 mg/L, 72 h): 41 and 36 and 35 and 42
- Mortality (Meloidogyne incognita; 6.25 mg/L, 72 h): 33.33% and 28.93% and 39.62%
- Corrected mortality (Meloidogyne incognita; 12.5 mg/L, 24 h): 43.94% and 48.97% and 49.86%
- Death count (Meloidogyne incognita; 12.5 mg/L, 24 h): 56 and 54 and 62 and 53
- Mortality (Meloidogyne incognita; 12.5 mg/L, 24 h): 44.63% and 49.60% and 50.48%
- Corrected mortality (Meloidogyne incognita; 12.5 mg/L, 48 h): 56.40% and 56.17% and 57.49%
- Death count (Meloidogyne incognita; 12.5 mg/L, 48 h): 67 and 69 and 71 and 61
- Mortality (Meloidogyne incognita; 12.5 mg/L, 48 h): 57.02% and 56.80% and 58.10%
- Corrected mortality (Meloidogyne incognita; 12.5 mg/L, 72 h): 61.27% and 67.40% and 67.01%
- Death count (Meloidogyne incognita; 12.5 mg/L, 72 h): 71 and 75 and 85
- Mortality (Meloidogyne incognita; 12.5 mg/L, 72 h): 61.98% and 68.00% and 67.62%
- Corrected mortality (Meloidogyne incognita; 25 mg/L, 24 h): 58.55% and 63.70% and 68.85%
- Death count (Meloidogyne incognita; 25 mg/L, 24 h): 78 and 75 and 68 and 90
- Mortality (Meloidogyne incognita; 25 mg/L, 24 h): 59.06% and 64.15% and 69.23%
- Corrected mortality (Meloidogyne incognita; 25 mg/L, 48 h): 63.25% and 67.46% and 68.78%
- Death count (Meloidogyne incognita; 25 mg/L, 48 h): 78 and 81 and 72 and 90
- Mortality (Meloidogyne incognita; 25 mg/L, 48 h): 63.78% and 67.92% and 69.23%
- Corrected mortality (Meloidogyne incognita; 25 mg/L, 72 h): 74.33% and 84.62% and 68.65%
- Death count (Meloidogyne incognita; 25 mg/L, 72 h): 78 and 95 and 90
- Mortality (Meloidogyne incognita; 25 mg/L, 72 h): 74.80% and 84.91% and 69.23%
- Corrected mortality (Meloidogyne incognita; 50 mg/L, 24 h): 82.02%
- Death count (Meloidogyne incognita; 50 mg/L, 24 h): 101 and 88 and 92
- Mortality (Meloidogyne incognita; 50 mg/L, 24 h): 82.24%
- Death count (Meloidogyne incognita; 50 mg/L, 48 h): 108 and 95 and 111 and 98
- Corrected mortality (Meloidogyne incognita; 50 mg/L, 72 h): 92.38%
- Death count (Meloidogyne incognita; 50 mg/L, 72 h): 115 and 99 and 120 and 101
- Mortality (Meloidogyne incognita; 50 mg/L, 72 h): 92.52%
- Death count (Meloidogyne incognita; 100 mg/L, 24 h): 105 and 102 and 120 and 107
- Death count (Meloidogyne incognita; 100 mg/L, 48 h): 108 and 102 and 121
- Death count (Meloidogyne incognita; 100 mg/L, 72 h): 109 and 102 and 121 and 108
- LC90 (Meloidogyne incognita; 24 h): 52.89 µg/mL (≈ 210 µM)
- LC90 (Meloidogyne incognita; 48 h): 56.41 µg/mL (≈ 225 µM)
- LC90 (Meloidogyne incognita; 72 h): 36.84 µg/mL (≈ 147 µM)
- LC50 (Meloidogyne incognita; 24 h): 12.5 µg/mL (≈ 49.8 µM)
- mortality at 3.1 µg/mL (Meloidogyne incognita; 24 h, 3.1 mg/L): 14.4%
- mortality at 6.25 µg/mL (Meloidogyne incognita; 24 h, 6.25 mg/L): 16.4%
- mortality at 12.5 µg/mL (Meloidogyne incognita; 24 h, 12.5 mg/L): 51.4%
- mortality at 25 µg/mL (Meloidogyne incognita; 24 h, 25 mg/L): 66.1%
- mortality at 50 µg/mL (Meloidogyne incognita; 24 h, 50 mg/L): 86.3%
- mortality at 100 µg/mL (Meloidogyne incognita; 24 h, 100 mg/L): 96.3%
- mortality at 3.1 µg/mL (Meloidogyne incognita; 24 h, read-out: Corrected mortality, 3.1 mg/L, 24 h): 13.4%
- mortality at 6.25 µg/mL (Meloidogyne incognita; 24 h, read-out: Corrected mortality, 6.25 mg/L, 24 h): 15.3%
- mortality at 12.5 µg/mL (Meloidogyne incognita; 24 h, read-out: Corrected mortality, 12.5 mg/L, 24 h): 50.8%
- mortality at 25 µg/mL (Meloidogyne incognita; 24 h, read-out: Corrected mortality, 25 mg/L, 24 h): 65.7%
- mortality at 50 µg/mL (Meloidogyne incognita; 24 h, read-out: Corrected mortality, 50 mg/L, 24 h): 86.2%
- mortality at 100 µg/mL (Meloidogyne incognita; 24 h, read-out: Corrected mortality, 100 mg/L, 24 h): 96.3%
- LC50 (Meloidogyne incognita; 48 h): 10.2 µg/mL (≈ 40.7 µM)
- mortality at 3.1 µg/mL (Meloidogyne incognita; 48 h, 3.1 mg/L): 20.2%
- mortality at 6.25 µg/mL (Meloidogyne incognita; 48 h, 6.25 mg/L): 31%
- mortality at 12.5 µg/mL (Meloidogyne incognita; 48 h, 12.5 mg/L): 61.5%
- mortality at 25 µg/mL (Meloidogyne incognita; 48 h, 25 mg/L): 66.1%
- mortality at 50 µg/mL (Meloidogyne incognita; 48 h, 50 mg/L): 92.3%
- mortality at 100 µg/mL (Meloidogyne incognita; 48 h, 100 mg/L): 99.1%
- mortality at 3.1 µg/mL (Meloidogyne incognita; 48 h, read-out: Corrected mortality, 3.1 mg/L, 48 h): 19%
- mortality at 6.25 µg/mL (Meloidogyne incognita; 48 h, read-out: Corrected mortality, 6.25 mg/L, 48 h): 30%
- mortality at 12.5 µg/mL (Meloidogyne incognita; 48 h, read-out: Corrected mortality, 12.5 mg/L, 48 h): 60.9%
- mortality at 25 µg/mL (Meloidogyne incognita; 48 h, read-out: Corrected mortality, 25 mg/L, 48 h): 65.6%
- mortality at 50 µg/mL (Meloidogyne incognita; 48 h, read-out: Corrected mortality, 50 mg/L, 48 h): 92.2%
- mortality at 100 µg/mL (Meloidogyne incognita; 48 h, read-out: Corrected mortality, 100 mg/L, 48 h): 99.1%
- LC50 (Meloidogyne incognita; 72 h): 7.41 µg/mL (≈ 29.5 µM)
- mortality at 3.1 µg/mL (Meloidogyne incognita; 72 h, 3.1 mg/L): 37.5%
- mortality at 6.25 µg/mL (Meloidogyne incognita; 72 h, 6.25 mg/L): 35.3%
- mortality at 12.5 µg/mL (Meloidogyne incognita; 72 h, 12.5 mg/L): 65.1%
- mortality at 25 µg/mL (Meloidogyne incognita; 72 h, 25 mg/L): 66.1%
- mortality at 50 µg/mL (Meloidogyne incognita; 72 h, 50 mg/L): 98.3%
- mortality at 100 µg/mL (Meloidogyne incognita; 72 h, 100 mg/L): 100%
- mortality at 3.1 µg/mL (Meloidogyne incognita; 72 h, read-out: Corrected mortality, 3.1 mg/L, 72 h): 36.3%
- mortality at 6.25 µg/mL (Meloidogyne incognita; 72 h, read-out: Corrected mortality, 6.25 mg/L, 72 h): 34.1%
- mortality at 12.5 µg/mL (Meloidogyne incognita; 72 h, read-out: Corrected mortality, 12.5 mg/L, 72 h): 64.5%
- mortality at 25 µg/mL (Meloidogyne incognita; 72 h, read-out: Corrected mortality, 25 mg/L, 72 h): 65.5%
- mortality at 50 µg/mL (Meloidogyne incognita; 72 h, read-out: Corrected mortality, 50 mg/L, 72 h): 98.3%
- mortality at 100 µg/mL (Meloidogyne incognita; 72 h, read-out: Corrected mortality, 100 mg/L, 72 h): 100%
- killing (indoor nematicidal) activity against Meloidogyne incognita J2, in words (Meloidogyne incognita; compared with oxamyl and fosthiazate): high killing activity; also recorded: higher than that of oxamyl; also recorded: higher than that of fosthiazate
- Main clinical symptom (SD rats; single oral dose 50 mg/kg): Asymptomatic
- Death count (SD rats; single oral dose 50 mg/kg, 50 mg/kg): 0/6
- Death count (SD rats; single oral dose 50 mg/kg, listed as sulfoxamyl, 50 mg/kg): no animals die
- Main clinical symptom (SD rats; single oral dose 500 mg/kg): Some rats with intense abdominal breathing,
- Death count (SD rats; single oral dose 500 mg/kg, 500 mg/kg): 0/6
- Death count (SD rats; single oral dose 500 mg/kg, listed as sulfoxamyl, 500 mg/kg): no animals die
- Main clinical symptom (SD rats; single oral dose 1000 mg/kg): Intense abdominal breathing,
- Death count (SD rats; single oral dose 1000 mg/kg, 1000 mg/kg): 8/10
- Death count (SD rats; single oral dose 1000 mg/kg, listed as sulfoxamyl, 1000 mg/kg): 8
- Main clinical symptom (SD rats; single oral dose 2000 mg/kg): Intense abdominal breathing,
- Death count (SD rats; single oral dose 2000 mg/kg, 2000 mg/kg): 6/6
- Death count (SD rats; single oral dose 2000 mg/kg, listed as sulfoxamyl, 2000 mg/kg): all animals
